According to paper PMC3726482 (PLoS ONE, 2013):

What was measured:
Format in all cases: biochemical
[1] = target: T1, EF (edema factor) (Bacillus anthracis, UniProt P40136); conditions: read-out: EF / KM
T1 construct: gene cya

[2] = target: T2, CyaA-N (Bordetella pertussis, UniProt P0DKX7); conditions: read-out: CyaA-N / KM
T2 construct: gene cya; catalytic domain, amino acids 1 to 373; plasmid pExCyaA-N; purified from E. coli; assayed with calf brain calmodulin; with Calmodulin

[3] = target: T2, CyaA-N

T2 sequence (P0DKX7 whole entry, looked up, the tested form may be a part): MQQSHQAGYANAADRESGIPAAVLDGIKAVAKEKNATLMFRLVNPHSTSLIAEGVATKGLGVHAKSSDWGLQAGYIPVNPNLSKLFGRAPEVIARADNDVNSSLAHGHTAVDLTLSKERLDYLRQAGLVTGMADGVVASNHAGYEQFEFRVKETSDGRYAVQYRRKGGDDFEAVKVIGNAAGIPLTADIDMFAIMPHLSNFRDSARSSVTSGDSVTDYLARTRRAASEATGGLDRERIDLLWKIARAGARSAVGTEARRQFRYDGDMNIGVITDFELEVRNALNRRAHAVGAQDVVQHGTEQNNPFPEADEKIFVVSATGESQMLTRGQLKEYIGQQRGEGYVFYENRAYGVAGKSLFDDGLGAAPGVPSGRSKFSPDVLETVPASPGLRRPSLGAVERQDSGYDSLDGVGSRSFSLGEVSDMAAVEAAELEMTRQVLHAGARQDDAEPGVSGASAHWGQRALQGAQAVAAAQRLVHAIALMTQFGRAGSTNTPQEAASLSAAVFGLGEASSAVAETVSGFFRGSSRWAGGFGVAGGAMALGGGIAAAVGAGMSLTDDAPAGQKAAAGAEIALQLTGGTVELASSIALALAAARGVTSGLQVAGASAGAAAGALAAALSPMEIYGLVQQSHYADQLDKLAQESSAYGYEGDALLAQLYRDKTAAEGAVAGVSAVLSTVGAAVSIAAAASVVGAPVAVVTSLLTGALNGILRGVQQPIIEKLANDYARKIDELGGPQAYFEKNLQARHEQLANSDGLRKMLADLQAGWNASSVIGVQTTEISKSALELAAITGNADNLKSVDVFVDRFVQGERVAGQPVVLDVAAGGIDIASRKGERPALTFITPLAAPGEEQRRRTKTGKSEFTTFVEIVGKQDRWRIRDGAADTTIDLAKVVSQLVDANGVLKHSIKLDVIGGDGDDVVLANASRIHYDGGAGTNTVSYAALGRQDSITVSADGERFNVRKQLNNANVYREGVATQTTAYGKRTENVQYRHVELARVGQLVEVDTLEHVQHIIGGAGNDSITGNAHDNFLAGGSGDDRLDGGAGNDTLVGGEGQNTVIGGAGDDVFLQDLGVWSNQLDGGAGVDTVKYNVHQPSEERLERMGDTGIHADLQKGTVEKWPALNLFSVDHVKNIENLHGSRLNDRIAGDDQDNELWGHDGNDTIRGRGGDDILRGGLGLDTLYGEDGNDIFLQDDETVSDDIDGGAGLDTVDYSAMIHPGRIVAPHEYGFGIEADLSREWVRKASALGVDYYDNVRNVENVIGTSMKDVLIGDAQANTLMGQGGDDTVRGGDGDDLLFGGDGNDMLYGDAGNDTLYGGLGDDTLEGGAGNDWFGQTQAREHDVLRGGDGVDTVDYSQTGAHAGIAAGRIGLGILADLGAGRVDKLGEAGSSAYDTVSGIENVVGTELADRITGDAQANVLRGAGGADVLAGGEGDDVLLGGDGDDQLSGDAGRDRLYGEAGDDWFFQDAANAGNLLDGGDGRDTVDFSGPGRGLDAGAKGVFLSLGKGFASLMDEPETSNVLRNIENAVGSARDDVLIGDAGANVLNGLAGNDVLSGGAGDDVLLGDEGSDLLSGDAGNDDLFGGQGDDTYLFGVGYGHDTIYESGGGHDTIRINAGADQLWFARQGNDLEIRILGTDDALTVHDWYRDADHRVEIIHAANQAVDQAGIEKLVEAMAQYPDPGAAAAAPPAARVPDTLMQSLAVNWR
T1 sequence (P40136 whole entry, looked up): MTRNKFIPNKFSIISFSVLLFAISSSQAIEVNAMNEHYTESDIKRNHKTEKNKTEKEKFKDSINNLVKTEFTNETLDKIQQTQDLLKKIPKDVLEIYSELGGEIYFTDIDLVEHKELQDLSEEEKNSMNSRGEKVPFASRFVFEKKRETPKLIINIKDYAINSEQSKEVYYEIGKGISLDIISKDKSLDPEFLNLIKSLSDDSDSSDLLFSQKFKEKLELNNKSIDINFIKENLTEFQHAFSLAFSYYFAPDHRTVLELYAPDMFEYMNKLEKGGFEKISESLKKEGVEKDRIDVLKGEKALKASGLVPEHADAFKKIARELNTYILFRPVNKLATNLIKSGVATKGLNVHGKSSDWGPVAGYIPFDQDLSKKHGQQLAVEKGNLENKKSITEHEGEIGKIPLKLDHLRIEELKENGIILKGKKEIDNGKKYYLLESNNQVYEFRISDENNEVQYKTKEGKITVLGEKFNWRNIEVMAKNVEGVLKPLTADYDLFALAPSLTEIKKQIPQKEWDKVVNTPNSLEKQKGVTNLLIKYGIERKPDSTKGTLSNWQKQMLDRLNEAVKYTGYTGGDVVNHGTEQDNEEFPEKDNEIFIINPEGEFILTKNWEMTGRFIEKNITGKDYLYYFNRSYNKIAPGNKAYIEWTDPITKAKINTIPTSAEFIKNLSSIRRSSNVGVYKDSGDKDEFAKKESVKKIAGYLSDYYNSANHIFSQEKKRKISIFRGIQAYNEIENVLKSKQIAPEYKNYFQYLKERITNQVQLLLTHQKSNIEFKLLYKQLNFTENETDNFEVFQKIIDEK

Q: What does the source list for `Nc1ncnc2c1ncn2[C@@H]1O[C@H](COP(=O)(O)OP(=O)(O)OP(=O)(O)O)[C@@H](O)[C@H]1O` [ATP]?
A: Km [1]: 78.1 ± 8.7 µM; Km [2]: 171 ± 22.8 µM

Q: How did the Km [1] turn out when `Nc1ccn([C@@H]2O[C@H](COP(=O)(O)OP(=O)(O)OP(=O)(O)O)[C@@H](O)[C@H]2O)c(=O)n1` [CTP] was run?
A: 367 ± 116 µM

Q: What about the Km [2] of the same molecule?
A: 475 ± 139 µM

Q: With `Nc1nc2c(ncn2[C@@H]2O[C@H](COP(=O)(O)OP(=O)(O)OP(=O)(O)O)[C@@H](O)[C@H]2O)c(=O)[nH]1` [GTP] as the molecule, how does the Km [1] read?
A: 85 ± 13 µM

Q: What about the Km [2] of the same molecule?
A: 191 ± 25 µM

Q: `O=P(O)(O)OP(=O)(O)OP(=O)(O)OC[C@H]1O[C@@H](n2cnc3c(O)ncnc32)[C@H](O)[C@@H]1O` [ITP] was tested. Which Km [1] did it give?
A: 507 ± 108 µM

Q: What about the Km [2] of the same molecule?
A: 329 ± 44 µM

Q: How did the Km [2] turn out when `Cc1cn([C@H]2C[C@H](O)[C@@H](COP(=O)(O)OP(=O)(O)OP(=O)(O)O)O2)c(=O)[nH]c1=O` [TTP] was run?
A: 19 ± 5 µM

Q: What about the “CyaA-N / KM” value [3] of the same molecule?
A: 1332 ± 365 µM

Q: How did the Km [1] turn out when `O=c1ccn([C@@H]2O[C@H](COP(=O)(O)OP(=O)(O)OP(=O)(O)O)[C@@H](O)[C@H]2O)c(=O)[nH]1` [UTP] was run?
A: 792 ± 299 µM

Q: What about the Km [2] of the same molecule?
A: 599 ± 59 µM

Q: For `O=c1[nH]c(=O)c2ncn([C@@H]3O[C@H](COP(=O)(O)OP(=O)(O)OP(=O)(O)O)[C@@H](O)[C@H]3O)c2[nH]1` [XTP], which Km [2] is on record?
A: 37 ± 7 µM

Q: And the “CyaA-N / KM” value [3]?
A: 309 ± 57 µM
